pKi: −log10 of the molar value. Activity calls are given as the source filed them. The calls are words filed in the database; no cut-off is given here.
Experiments:
[1] = target: T1, Type-1 angiotensin II receptor A (Rattus norvegicus, UniProt P25095); test: Displacement of [125I]-SI-Ang-2 from AT1 receptor in Rattus norvegicus Sprague-Dawley (rat) liver membranes after 2 hr; design: species or system Membrane
T1 sequence (P25095 whole entry): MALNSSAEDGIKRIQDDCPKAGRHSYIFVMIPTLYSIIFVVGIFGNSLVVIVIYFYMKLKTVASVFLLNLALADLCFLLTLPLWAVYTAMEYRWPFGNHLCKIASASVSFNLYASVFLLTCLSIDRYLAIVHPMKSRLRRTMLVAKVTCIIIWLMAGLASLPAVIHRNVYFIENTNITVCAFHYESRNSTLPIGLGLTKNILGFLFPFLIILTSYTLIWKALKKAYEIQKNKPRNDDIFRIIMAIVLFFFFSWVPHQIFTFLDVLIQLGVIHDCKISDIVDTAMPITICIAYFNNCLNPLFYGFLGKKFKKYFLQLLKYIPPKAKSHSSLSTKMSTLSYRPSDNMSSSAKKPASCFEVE

[2] = target: T2, Peroxisome proliferator-activated receptor gamma (Mus musculus) (UniProt P37238); test: Agonist activity at Mus musculus (mouse) PPARgamma LBD expressed in african green monkey CV-1 cells co-expressing GAL4 assessed as […] at 1 uM after 24 hr by luciferase assay relative to rosiglitazone; assay type: cell-based
T2 sequence (whole entry): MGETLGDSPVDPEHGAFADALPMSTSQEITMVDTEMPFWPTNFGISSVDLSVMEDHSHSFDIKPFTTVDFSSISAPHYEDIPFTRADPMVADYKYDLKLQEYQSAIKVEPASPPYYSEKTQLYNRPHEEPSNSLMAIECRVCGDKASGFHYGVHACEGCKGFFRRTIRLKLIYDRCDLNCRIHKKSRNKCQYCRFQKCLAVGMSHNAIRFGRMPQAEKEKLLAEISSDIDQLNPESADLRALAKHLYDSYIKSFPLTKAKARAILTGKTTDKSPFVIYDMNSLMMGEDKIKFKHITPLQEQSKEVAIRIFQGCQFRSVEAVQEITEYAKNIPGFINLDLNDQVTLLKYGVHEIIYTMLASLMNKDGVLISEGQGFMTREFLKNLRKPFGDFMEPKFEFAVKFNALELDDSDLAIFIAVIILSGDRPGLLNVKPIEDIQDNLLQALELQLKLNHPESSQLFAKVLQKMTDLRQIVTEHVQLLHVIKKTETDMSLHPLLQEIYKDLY

3T3-L1 = test: Induction of adipocyte differentiation in Mus musculus (mouse) 3T3L1 cells at 1 to 5 uM; assay type: functional, cell-based

pKi [1]	%max [2]	Compound	Activity (3T3-L1)
< 5.00		CCCc1nc2c(C)cc(-c3nc4ccccc4n3C)cc2n1CCOc1ccc(CC2SC(=O)NC2=O)cc1C(=O)OC (stereo unspecified)	
< 5.00	51.6%	CCCc1nc2c(C)cc(Br)cc2n1CCOc1ccc(CC2SC(=O)NC2=O)cc1C(=O)OC (stereo unspecified)	
< 5.00	11.9%	CCCc1nc2c(C)cc(-c3ccccc3)cc2n1CCOc1ccc(CC2SC(=O)NC2=O)cc1C(=O)OC (stereo unspecified)	

The remaining lines, values behind:

Compound	pKi [1]	%max [2]	Activity (3T3-L1)
COC(=O)c1cc(CC2SC(=O)NC2=O)ccc1OCCn1c(CCCCC2CCCCC2)nc2ccccc21 (stereo unspecified)	< 5.00	38.7%	
COC(=O)c1cc(CC2SC(=O)NC2=O)ccc1OCCN(C)C(=O)CCCCC1CCCCC1 (stereo unspecified)	< 5.00	90.4%	
CCCc1nc2c(C)cc(-c3nc4ccccc4n3C)cc2n1Cc1ccc(-c2ccccc2C(=O)O)cc1		21.2%	Active
